Source: patent publication EP4681700A1, “GSE24.2-DERIVED PEPTIDE AND USES THEREOF” (Consejo Superior De Investigaciones Científicas - CSIC, priority 2023, dated 2026)

How the values were obtained:
HaCaT cells [1] = assay: TGFβ-induced expression of TGFβ receptor and MCP1 mRNA (epithelial/mesenchymal transition), quantitative PCR; assay type: cell-based, human; conditions: 5 ng/mL TGFβ, 48 of culture; for induction of expression of TGFBR2 mRNA after incubating the cells with TGFβ: Figure 4B; for induction of expression of MCP1 mRNA after incubating the cells with TGFβ: p<0.05 for P3, Figure 4B
Text: (§1) The ageing of some tissues is accompanied by fibrotic processes in which fibroblasts and myofibroblasts accumulate and in which epithelial/mesenchymal transition of epithelial cells is induced. This process occurs, for example, in idiopathic pulmonary fibrosis and in fibrosis processes as a result of skin exposure to ionising radiation. Many of these processes are mediated by the secretion of the cytokine TGFβ (transforming growth factorβ). The possible effect of the peptides on these processes was studied by incubating cells with TGFβ (R&D Systems, Bio-Techne, Minneapolis; MN, USA) and studying the expression of two mRNAs induced by this cytokine, i.e., the TGFβ receptor (TGFβR1/2) and the cytokine MCP1 (also referred to as CCL2) by means of reverse transcription of RNA and quantitative PCR.
(§2) Control cells or cells transduced with GFP expression vectors, or the GSE4 and P3 peptides were cultured in the absence or presence of a concentration of 5 ng/mL of the TGFβ factor (identified with the symbol + in Figure 4) to induce epithelial/mesenchymal transition. After 48 of culture, RNA was obtained from the cells and converted into cDNA by means of reverse transcription. The expression levels of the mRNA encoding TGFBR-1/2 (TGFβ-receptor 1 or 2) and MCP1 (monocyte chemoattractant protein-1, also referred to as CCL2: C-C motif chemokine ligand 2) were determined by quantitative PCR. The values obtained were corrected by those corresponding to the control mRNA (GAPDH) and normalised by the expression in control cells (CT).
(§3) In the assays shown in Figures 4A, for RLE6TN cells, oligonucleotides SEQ ID Nos 31 and 32 for TGFBR1, 35 and 36 for MCP1, and 43 and 44 for GAPDH were used in quantitative PCR. To obtain the results shown in Figure 4B, for HaCaT cells, oligonucleotides SEQ ID Nos: 29 and 30 for TGFBR2, SEQ ID Nos: 33 and 34 for MCP1, and SEQ ID Nos: 41y 42 for GAPDH b were used.

HaCaT cells [2] = assay: TERT and TERC mRNA expression by quantitative PCR in transduced cells; assay type: cell-based, human; conditions: corrected by GAPDH, normalised to CT; for expression of Terc: p<0.001 for P3 only, Figure 3D; for expression of TERT: p<0.01 for both peptides, Figure 3C
Text: (§4) RNA was isolated from control cells or cells transduced with vectors expressing GFP or the GSE4 and P3 peptides. The corresponding cDNAs, which were used to determine the expression levels of the mRNA encoding TERT (Figure 3, panels A and C) and TERC (Figure 3, panels B and D) by means of quantitative PCR, were synthesised from these RNAs. Expression levels were corrected by levels corresponding to the mRNA encoding GAPDH, used as a control. Relative values were normalised with respect to values obtained for non-transduced control cells (CT). Panels A and B show the results obtained for RL6TN cells and panels C and D show the results corresponding to HaCaT cells.
The results obtained for HaCaT cells are depicted in Figures 3C and 3D where oligonucleotides corresponding to SEQ ID Nos: 21, 22 for TERT, SEQ ID Nos: 25, 26 for TERC, and SEQ ID Nos: 41, 42 for GAPDH were used. […] This difference is statistically significant for both peptides in the case of TERT (**, p<0.01, ANOVA test and Dunnett's post-hoc test) and for the P3 peptide in the case of TERC (***, p<0.001, ANOVA test and Dunnett's post-hoc test).

RLE6TN cells [3] = assay: as above; assay type: cell-based, rat; conditions: corrected by GAPDH, normalised to CT; for expression of Tert mRNA: Figure 3A; for expression of Terc: p<0.05, Figure 3B
Text: as §4
For assays performed in RLE6TN cells, shown in Figures 3A and 3B, oligonucleotides corresponding to SEQ ID Nos: 23, 24 for TERT, SEQ ID Nos:27, 28 for TERC, and SEQ ID Nos:43, 44 for GAPDH were used in quantitative PCR assays.

RLE6TN cells [4] = assay: IL-6 mRNA expression by quantitative PCR in transduced cells; assay type: cell-based, rat; conditions: Figure 5A
Protocol: (§5) Another important component of tissue ageing is the production of pro-inflammatory interleukins that induce the presence of basal inflammation in tissues. This inflammatory situation also occurs in some diseases of premature ageing and in response to environmental aggressions. Interleukin-6 (IL-6) is one of the main pro-inflammatory molecules and, for this reason, the possible effect of the expression of the peptides on the synthesis of this molecule was determined. In these experiments, the expression of the mRNA encoding IL-6 in cells transduced with the expression vectors of the P3 peptide and controls was determined.
(§6) RNA was obtained from RL6TN cells (Figure 5, panel A) or HaCaT cells (Figure 5, panel B) not transduced (CT) or transduced with lentiviral vectors expressing GFP or the GSE4 or P3 peptides. cDNA was synthesised from each RNA by reverse transcription and the amount of mRNA encoding IL-6 was quantified by quantitative PCR as described in Examples 2 and 3 above.
(§7) The obtained results are shown in Figures 5A (RLE6TN cells) and 5B (HaCaT cells). In the assays with RLE6TN cells, oligonucleotides with SEQ ID Nos: 39 and 40 for IL-6 and SEQ ID Nos: 43 and 44 for GAPDH were used for quantitative PCRs. In the assay performed with HaCaT cells, oligonucleotides with SEQ ID Nos: 37 and 38 for IL-6 and SEQ ID Nos: 41 and 42 for GAPDH were used.

HaCaT cells [5] = assay: yH2AX Western blot (DNA damage signalling) in transduced keratinocytes; assay type: cell-based, human; conditions: 6 hours
Text: (§8) RL6TN cells were transduced with lentiviral vectors directing the expression of the different peptides under study (sequences derived from pCCL-hPGK.GSE4.wPREchim, SEQ ID NO. 62, in which the oligonucleotides corresponding to each peptide, shown in Table 4, SEQ ID Nos: 46-60, have been included between restriction sites Sall and Xbal) or of the GFP protein (green fluorescent protein) (PGK-EGFP sequence, SEQ ID NO. 63) as negative control. 600,000 non-transduced (control, CT) cells or cells transduced with the different lentiviral vectors were cultured for 6 hours in the absence (Panel A) or presence of 4 µg/mL of bleomycin (Merck, Burlington, MA. USA) (Panel B). After this culture period, the cells were lysed and the amount of yH2AX was determined by means of Western blot using an yH2AX-specific antibody (Cell Signalling Technology, Danvers, MA, USA). Expression of the β-actin protein as loading control was simultaneously determined using a specific antibody (Santa Cruz Biotechnology, Dallas, TX, USA). Protein expression was quantified using a luminometer. The expression of yH2AX in each sample was calculated based on the amount of β-actin. These relative values were normalised to the value corresponding to control cells not treated with bleomycin.
DNA damage signalling studies were reproduced in human skill keratinocyte cell line HaCaT. This cell line is often used to study skin's response to environmental and pathogenic agents. HaCaT cells were transduced with lentiviral vectors which allow the expression of the P3 peptide, the GSE4 peptide, as a positive control, or GFP as a negative control. 100,000 non-transduced (CT) cells or cells transduced with the various peptides were cultured in the absence (Figure 2A) or presence of 50 µg/mL of bleomycin (Figure 2B) for 6 hours. Subsequently, the cells were lysed and the amount of yH2AX present in the extracts was determined by Western Blot in the same way as indicated for the assays in RL6TN cells described above.

RLE6TN cells [6] = assay: TGFβ-induced expression of TGFβ receptor and MCP1 mRNA (epithelial/mesenchymal transition), quantitative PCR; assay type: cell-based, rat; conditions: 5 ng/mL TGFβ, 48 of culture; for induction of expression of Mcp1 mRNA after incubating the cells with TGFβ: p<0.01 for P3 and GSE4, Figure 4A; for induction of expression of Tgfbr1 mRNA after incubating the cells with TGFβ: p<0.05 for P3, Figure 4A
Text: as §1, §2, §3

HaCaT cells [7] = assay: IL-6 mRNA expression by quantitative PCR in transduced cells; assay type: cell-based, human; conditions: Figure 5B
Protocol: as §5, §6, §7

[8] = test system: rat lung epithelial cells RL6TN; assay: yH2AX Western blot (DNA damage) in cells transduced with lentiviral peptide expression vectors; assay type: cell-based; conditions: 6 hours, relative to β-actin, normalised to CT
Protocol: In the experiment shown in Figure 1, rat lung epithelial cells RL6TN were transduced with lentiviral vectors directing the expression of the peptides under study and the corresponding controls. The presence of γH2AX was then determined by means of Western blot assays.
as §8

[9] = baseline damage (absence of bleomycin), Figure 2A
[10] = 4 µg/mL of bleomycin, Figure 1B
[11] = culture control conditions (absence of bleomycin), Figure 1A

Sequence	induction of expression of TGFBR2 mRNA after incubating the cells with TGFβ (HaCaT cells [1])	induction of expression of MCP1 mRNA after incubating the cells with TGFβ (HaCaT cells [1])	expression of Terc (HaCaT cells [2])	expression of TERT (HaCaT cells [2])	expression of Tert mRNA (RLE6TN cells [3])	expression of Terc (RLE6TN cells [3])	expression of IL-6 mRNA (RLE6TN cells [4])	DNA damage signalling (amount of yH2AX) (HaCaT cells [5]; [9])	induction of expression of Mcp1 mRNA after incubating the cells with TGFβ (RLE6TN cells [6])	induction of expression of Tgfbr1 mRNA after incubating the cells with TGFβ (RLE6TN cells [6])	expression of IL-6 mRNA (HaCaT cells [7])	levels of yH2AX [8, 10]	levels of yH2AX [8, 11]	DNA damage signalling (amount of yH2AX) (HaCaT cells [5]; 50 µg/mL of bleomycin, Figure 2B)
GFINLDKPSNP [GSE4, reference compound]	also causes this inhibitory effect of the response to TGFβ	also causes this inhibitory effect of the response to TGFβ	caused an increase	caused an increase	an increase was also observed	significant increase	decreased the expression of IL-6 mRNA	the reduction is greater than that caused by the expression of GSE4	also causes this inhibitory effect of the response to TGFβ	also causes this inhibitory effect of the response to TGFβ	decreased the expression of IL-6 mRNA	This decrease is greater than that caused by the expression of the GSE4 peptide	This decrease is greater than that caused by the expression of the GSE4 peptide	
DKPSNPSSHE [P3, GSE24.2-derived peptide of 10 amino acids, expressed in cells from a lentiviral vector]	decreases the induction of expression of both markers	decreases the induction of expression of both markers	caused an increase	caused an increase	an increase was also observed	significant increase	decreased the expression of IL-6 mRNA	reduces DNA damage signalling	decreases the induction of expression of both markers	decreases the induction of expression of both markers	decreased the expression of IL-6 mRNA	causes a decrease in the levels of yH2AX	causes a decrease in the levels of yH2AX	reduces DNA damage signalling
